Assay results: patent US8383617B2, “Treatment of protein aggregation diseases” (priority 2007, dated 2013)
Values joined by “and” are separate entries in the source; they are usually repeats but may differ in a detail not shown here. Identical values can stand only once.

What was measured:
[1] = biological target: Synthetic beta-amyloid peptide 1-40 (Homo sapiens, UniProt P05067); test: Seprion assay screen for compounds that affect amyloid aggregation; format: biochemical; conditions: test compounds at 1 mM; for Relative aggregation compared to 'no compound' aggregation control: peptide 2.8 μg/ml, 30 min at 37° C., Seprion assay signal
beta-amyloid 1-42 [2] = biological target: T1, beta-amyloid 1-42 (Homo sapiens, UniProt P05067); test: Seprion assay of brain extracts of treated hAPP(751) mice, beta-amyloid 1-42; format: in vivo; conditions: SDS extracts of brain; daily oral from 2 to 6 months of age; fluphenazine 0.5 mg/Kg, trimipramine 25 mg/Kg; one value per animal
T1 construct: ELISA and Seprion assay for amyloid — 1-40 and 1-42 on the SDS extracts; from tissue; host or cells: brain extracts of hAPP(751) transgenic mice

beta-amyloid 1-40 [3] = biological target: T2, beta-amyloid 1-40 (Homo sapiens, UniProt P05067); test: Seprion assay of brain extracts of treated hAPP(751) mice, beta-amyloid 1-40; format: in vivo; conditions: SDS extracts of brain; daily oral from 2 to 6 months of age; fluphenazine 0.5 mg/Kg, trimipramine 25 mg/Kg; one value per animal
T2 construct: These mice develop increased amounts of beta-amyloid 1-40 and 1-42 in the brain; from tissue; host or cells: brain extracts of hAPP(751) transgenic mice

beta-amyloid 1-40 [4] = biological target: T2, beta-amyloid 1-40; test: ELISA of brain extracts of treated hAPP(751) mice, beta-amyloid 1-40; format: in vivo; conditions: daily oral from 2 to 6 months of age, fluphenazine 0.5 mg/Kg, trimipramine 25 mg/Kg, one value per animal
amyloid plaques = test: Immunohistochemistry of brains of treated hAPP(751) mice for amyloid plaques; format: in vivo; conditions: immunohistochemistry of brain; daily oral from 2 to 6 months of age; fluphenazine 0.5 mg/Kg, trimipramine 25 mg/Kg
beta-amyloid 1-42 [5] = biological target: T1, beta-amyloid 1-42; test: ELISA of brain extracts of treated hAPP(751) mice, beta-amyloid 1-42; format: in vivo; conditions: daily oral from 2 to 6 months of age, fluphenazine 0.5 mg/Kg, trimipramine 25 mg/Kg, one value per animal
[6] = biological target: Synthetic beta-amyloid peptide (Homo sapiens, UniProt P05067); test: PAGE and silver staining of aggregation reactions incubated with compounds; format: biochemical; conditions: peptide incubated in the presence of compound, FIG. 2
[7] = Therapy of a patient with Gerstman-Straussler-Scheinker (GSS) syndrome; conditions: intraventricular, before the combination therapy

Chain of Synthetic beta-amyloid peptide 1-40 (P05067 672-711): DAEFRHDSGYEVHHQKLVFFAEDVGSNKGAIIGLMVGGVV
T2 sequence (P05067 672-711): as above
T1 sequence (P05067 672-713): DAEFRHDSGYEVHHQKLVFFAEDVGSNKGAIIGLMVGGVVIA
Chain of Synthetic beta-amyloid peptide (P05067 672-711): as the sequence (P05067 672-711) above

Clc1ccc2c(c1)C(N1CCNCC1)=Nc1ccccc1O2 [Amoxapine, amoxapine]
Relative aggregation compared to 'no compound' aggregation control [1]: 119%

CN1CCN(CC/C=C2/c3ccccc3Sc3ccc(S(=O)(=O)N(C)C)cc32)CC1 [Cis-thiothixene, cis-thiothixene]
Relative aggregation compared to 'no compound' aggregation control [1]: 42%

OCCN1CCN(CCC=C2c3ccccc3Sc3ccc(C(F)(F)F)cc32)CC1 [Flupenthixol, cis-(Z)-flupenthixol]
Relative aggregation compared to 'no compound' aggregation control [1]: 48.2%

OCCN1CCN(CCCN2c3ccccc3Sc3ccc(C(F)(F)F)cc32)CC1 [Fluphenazine, fluphenazine]
Seprion assay beta-amyloid 1-42 OD420 nm (beta-amyloid 1-42 [2]): 0.93 OD420 nm and 0.68 OD420 nm | Seprion assay beta-amyloid 1-40 OD420 nm (beta-amyloid 1-40 [3]): 0.18 OD420 nm and 0.09 OD420 nm | ELISA beta-amyloid 1-40 ng (beta-amyloid 1-40 [4]; SDS extracts of brain): 88 ng and 51 ng | ELISA beta-amyloid 1-40 ng (beta-amyloid 1-40 [4]; formic acid extracts of brain): 116 ng and 119 ng | plaque reduction (amyloid plaques): 23% | ELISA beta-amyloid 1-42 ng (beta-amyloid 1-42 [5]; SDS extracts of brain): 295 ng and 165 ng | ELISA beta-amyloid 1-42 ng (beta-amyloid 1-42 [5]; formic acid extracts of brain): 143 ng and 197 ng

c1ccc2c(c1)Nc1ccccc1S2 [Phenothiazine]
Relative aggregation compared to 'no compound' aggregation control [1]: 80%

CN(C)CCCN1c2ccccc2Sc2ccccc21.Cl [Promazine, promazine]
inhibition of amyloid aggregation by PAGE and silver staining [6]: inhibit the aggregation of the amyloid | Relative aggregation compared to 'no compound' aggregation control [1]: 44.5%

CC(CN(C)C)CN1c2ccccc2CCc2ccccc21 (centres unmarked) [Trimipramine, trimipramine]
Seprion assay beta-amyloid 1-42 OD420 nm (beta-amyloid 1-42 [2]): 0.26 OD420 nm and 2.26 OD420 nm and 0.98 OD420 nm and 0.64 OD420 nm | Seprion assay beta-amyloid 1-40 OD420 nm (beta-amyloid 1-40 [3]): 0.11 OD420 nm and 0.58 OD420 nm and 0.14 OD420 nm and 0.10 OD420 nm | ELISA beta-amyloid 1-40 ng (beta-amyloid 1-40 [4]; SDS extracts of brain): 169 ng and 101 ng and 195 ng and 89 ng | ELISA beta-amyloid 1-40 ng (beta-amyloid 1-40 [4]; formic acid extracts of brain): 127 ng and 111 ng and 182 ng and 115 ng | inhibition of amyloid aggregation by PAGE and silver staining [6]: inhibit the aggregation of the amyloid | plaque reduction (amyloid plaques): 15% | ELISA beta-amyloid 1-42 ng (beta-amyloid 1-42 [5]; SDS extracts of brain): 346 ng and 369 ng and 529 ng and 350 ng | ELISA beta-amyloid 1-42 ng (beta-amyloid 1-42 [5]; formic acid extracts of brain): 174 ng and 185 ng and 311 ng and 213 ng | Relative aggregation compared to 'no compound' aggregation control [1]: 259%

CCN(CC)CCCC(C)Nc1c2ccc(Cl)cc2nc2ccc(OC)cc12 (centres unmarked) [quinacrine]
effect on amyloid aggregation (in words) ([1]; Seprion assay screen): not effective

nortriptyline
Relative aggregation compared to 'no compound' aggregation control [1]: 189%

pentosan polysulphate
clinical effect [7]: had no effect

protryptyline [Protriptyline]
Relative aggregation compared to 'no compound' aggregation control [1]: 184%
